We go through 5 compounds from US5747235A, “Silver halide light sensitive emulsion layer having enhanced photographic sensitivity” (Eastman Kodak Company, priority 1996, dated 1998).

Assay [1] is described as follows: Example 7: photographic speed and fog with/without HB3, 365 nm exposure, emulsion T-2. On the procedure:
(§1) For photographic evaluation, each of the coating strips was exposed for 0.1 sec to a 365 nm emission line of a Hg lamp filtered through a Kodak Wratten filter number 18A and a step wedge ranging in density from 0 to 4 density units in 0.2 density steps. The exposed film strips were developed for 6 min in Kodak Rapid X-ray Developer (KRX). S365, relative sensitivity at 365 nm, was evaluated at a density of 0.2 units above fog.
An AgBrI tabular silver halide emulsion (Emulsion T-2) was prepared containing 4.05% total I distributed such that the central portion of the emulsion grains contained 1.5% I and the perimeter area contained substantially higher I, as described by Chang et. al., U.S. Pat. No. 5,314,793. […] This emulsion was precipitated using deionized gelatin. The emulsion was sulfur sensitized by adding 8.5×10^-6 mole 1,3-dicarboxymethyl-1,3-dimethyl-2-thiourea /mole Ag at 40° C.; the temperature was then raised to 60° C. at a rate of 5° C./3 min and the emulsions held for 20 min before cooling to 40° C. The chemically sensitized emulsion was then used to prepare coatings containing the fragmentable two-electron donor compounds. […] Where present, the blue sensitizing dye D-I or the red sensitizing dye D-II were added from methanol solution to the emulsion at 40° C. after the chemical sensitization and disulfocatechol addition. The fragmentable two-electron donor compounds were added to the emulsion at 40° C. and the coatings were prepared and tested as described in Example 1, except that the additional gelatin used to prepare the coatings described in Table III was deionized gelatin.
Where present the blue sensitizing dye D-I or the red sensitizing dye D-II were added from methanol solution to the emulsion at 40° C. after the chemical sensitization and disulfocatechol addition. The fragmentable two-electron donating compounds were then added to the emulsion and coatings prepared as described in Example 1, except that the additional gelatin used to prepare the coatings described in Table VII was deionized gelatin. The coatings were tested for their response to a 365 nm exposure as described in Example 1.

Assay [2] in a line: Example 8: spectral sensitivity, cubic emulsion C-1. The following applies: dye II 0.44 x10^-3, dyed control=100. The procedure: (§2) Additional testing was carried out to determine the response of the coatings described in Table III to a spectral exposure. Each of the coating strips was exposed for 0.1 sec on a wedge spectrographic instrument that covers the wavelength range from 400 to 750 nm. The instrument contains a tungsten light source and a step tablet ranging in density from 0 to 3 density units in 0.3 density steps. After developing exposed strips for 6 min in Kodak Rapid X-ray Developer (KRX), speed was read at 10 nm wavelength intervals at a density of 0.3 above fog. Correction for the instrument's variation in spectral irradiance with wavelength was done with a computer and a plot of log sensitivity vs. wavelength was generated. For this exposure, for each dye used, the relative sensitivity was set equal to 100 for the control coating with no fragmentable two-electron donor compound added.
Two cubic emulsions with uniform halide composition were precipitated using deionized gelatin. Emulsion C-1 was a AgErI emulsion with a 3% I content and a cubic edge length of 0.47 μm and emulsion C-2 was an AgBr emulsion with a cubic edge length of 0.52 μm. The emulsions were sulfur sensitized by adding 1,3-dicarboxymethyl-1,3-dimethyl-2-thiourea at 40° C.; the temperature was then raised to 60° C. at a rate of 5° C./3 min and the emulsions held for 20 min before cooling to 40° C. The amounts of the sulfur sensitizing compound used were 1.0×10^-5 mole/mole Ag for emulsion C-1, and 6.0×10^-6mole/mole Ag for emulsion C-2. These experimental coating variations contained the hydroxybenzene, 2,4-disulfocatechcol (HB3) at a concentration of 13 mmole/mole Ag, added to the melt before the addition of any further compounds. Some of the variations were then dyed with the sensitizing dye D-II, added from methanol solution. The fragmentable electron donor compounds were then added to the emulsion melts at 40° C. and coatings were prepared and tested as described in Example 1 except that the additional gelatin used to prepare the coatings described in Table VIII was deionized gelatin. Also, the dyed coatings were tested for their response to a spectral exposure as described in Example 3.

Assay [3] can be described thus: Example 6: photographic speed and fog, 365 nm exposure, emulsion T-2. The following applies: for effect on dye desensitization: red dyed emulsion (D-II), 365 nm. On the procedure: as §1
An AgBrI tabular silver halide emulsion (Emulsion T-2) was prepared containing 4.05% total I distributed such that the central portion of the emulsion grains contained 1.5% I and the perimeter area contained substantially higher I, as described by Chang et. al., U.S. Pat. No. 5,314,793. […] This emulsion was precipitated using deionized gelatin. The emulsion was sulfur sensitized by adding 8.5×10^-6 mole 1,3-dicarboxymethyl-1,3-dimethyl-2-thiourea /mole Ag at 40° C.; the temperature was then raised to 60° C. at a rate of 5° C./3 min and the emulsions held for 20 min before cooling to 40° C. The chemically sensitized emulsion was then used to prepare coatings containing the fragmentable two-electron donor compounds. All of the experimental coating variations in Table III contained the hydroxybenzene 2,4-disulfocatechol (HB3) at a concentration of 13 mmole/ mole Ag, added to the melt before the addition of any further addenda. Where present, the blue sensitizing dye D-I or the red sensitizing dye D-II were added from methanol solution to the emulsion at 40° C. after the chemical sensitization and disulfocatechol addition. The fragmentable two-electron donor compounds were added to the emulsion at 40° C. and the coatings were prepared and tested as described in Example 1, except that the additional gelatin used to prepare the coatings described in Table III was deionized gelatin.
(§3) The chemically sensitized AgErI tabular emulsion T-2 as described in Example 3 was used to prepare the experimental coating variations listed in Table VI, comparing fragmentable electron donating compounds PMT-1 and PMT-2 that contain a phenylmercaptotetrazole as the silver halide adsorbing group. For some of the experimental variations listed in Table VI the red sensitizing dye D-II was added from methanol solution to the emulsion at 40° C. after the chemical sensitization. The fragmentable electron donating compounds were then added to the emulsion and coatings prepared and tested for sensitivity at 365 nm and for spectral sensitivity as described in Example 3.

Assay [4] can be described thus: Example 6: spectral sensitivity, wedge spectrographic exposure, emulsion T-2. Particulars: dye II 0.86 x10^-3, dyed control=100. The procedure:
as §2, §3

[5] abbreviates: 0.007 x10^-3 mole/mole Ag, HB3 0, dye II 0.86 x10^-3.
Setting [6] is: 0.007 x10^-3 mole/mole Ag, HB3 13 x10^-3, dye II 0.86 x10^-3.
Where [7] appears, read: 0.007 x10^-3 mole/mole Ag, HB3 13 x10^-3, dye II 0.86 x10^-3, dyed control 68.
Setting [8] is: 0.07 x10^-3 mole/mole Ag, HB3 0, dye I 0.91 x10^-3.
[9] abbreviates: 0.07 x10^-3 mole/mole Ag, HB3 0, no dye.
Where [10] appears, read: 0.07 x10^-3 mole/mole Ag, HB3 0, no dye, control=100.
Where [11] appears, read: 0.07 x10^-3 mole/mole Ag, HB3 13 x10^-3, dye I 0.91 x10^-3.
Where [12] appears, read: 0.07 x10^-3 mole/mole Ag, HB3 13 x10^-3, dye I 0.91 x10^-3, dyed control 105.
The mark [13] stands for this setting: 0.07 x10^-3 mole/mole Ag, HB3 13 x10^-3, no dye.
[14] abbreviates: 0.07 x10^-3 mole/mole Ag, HB3 13 x10^-3, no dye, control=100.

The structures appear in SMILES notation. Structures can show the parent of a compound that is named as a salt.

Take `CCSCCN(c1ccc(C)cc1)C(CC(=O)O)C(=O)O` (stereo not drawn) [Compound S-8]: the Fog was 0.21 in assay [1] (setting [5]); 0.15 in assay [1] (setting [6]); 0.12 in assay [1] (setting [8]); 0.16 in assay [1] (setting [9]); 0.12 in assay [1] (setting [11]); 0.13 in assay [1] (setting [13]). Also, the S365 in assay [1] (setting [5]) turned out to be 110; in assay [1] (setting [7]), 112; in assay [1] (setting [8]), 155; in assay [1] (setting [10]) it was 159; in assay [1] (setting [12]), 120; in assay [1] (setting [14]), 162.
In the case of `CCSCCN(c1ccccc1)C(C)C(=O)O` (stereo not drawn) [Compound S-9, N-(Phenyl)-N-(2-thioethyl-ethyl)alanine sodium salt], the Sλ in assay [2] (0.005 x10^-3 mol/mol Ag) was determined as 145; in assay [2] (0.016 x10^-3 mol/mol Ag), 178. The Fog in assay [1] (0.0022 x10^-3 mole/mole Ag, HB3 13 x10^-3, dye II 0.86 x10^-3) is 0.24; in assay [1] (setting [5]) it was 0.77; in assay [1] (setting [6]), 0.44; in assay [1] (setting [8]) it was 0.19; in assay [1] (setting [9]), 0.21; in assay [1] (setting [11]), 0.13. In assay [1] (setting [13]), the Fog stood at 0.13. Further, the S365 in assay [1] (0.0022 x10^-3 mole/mole Ag, HB3 13 x10^-3, dye II 0.86 x10^-3, dyed control 68) was found to be 115; in assay [1] (setting [7]), 107; in assay [1] (setting [8]) it was 159; in assay [1] (setting [10]) it was 170; in assay [1] (setting [12]) it was 162; in assay [1] (setting [14]), 166.
In the case of `CCSCCN(c1ccc(C(=O)O)cc1)C(C)C(=O)O` (stereo not drawn) [Compound S-11], the Sλ in assay [2] (0.05 x10^-3 mol/mol Ag) worked out at 151; in assay [2] (0.16 x10^-3 mol/mol Ag) it was 178.
In the case of `Cc1ccc(N(CCC(=O)Nc2cccc(-n3nnnc3S)c2)C(C)C(=O)O)cc1` (stereo not drawn) [PMT-1], the Fog in assay [3] (0.0006 x10^-3 mole/mole Ag, dye II 0.86 x10^-3) came to 0.14; in assay [3] (0.0017 x10^-3 mole/mole Ag, dye II 0.86 x10^-3), 0.27; in assay [3] (0.0055 x10^-3 mole/mole Ag, dye II 0.86 x10^-3) it was 0.53; in assay [3] (0.006 x10^-3 mole/mole Ag, no dye), 0.08; in assay [3] (0.017 x10^-3 mole/mole Ag, no dye) it was 0.13. For the same compound, the S365 was 97 in assay [3] (0.0006 x10^-3 mole/mole Ag, dye II 0.86 x10^-3, dyed control 73); 115 in assay [3] (0.0017 x10^-3 mole/mole Ag, dye II 0.86 x10^-3, dyed control 73); 102 in assay [3] (0.0055 x10^-3 mole/mole Ag, dye II 0.86 x10^-3, dyed control 73); 195 in assay [3] (0.006 x10^-3 mole/mole Ag, no dye, control=100); 191 in assay [3] (0.017 x10^-3 mole/mole Ag, no dye, control=100). Also, the “effect on dye desensitization” value in assay [3] is on record as “effective in ameliorating dye desensitization”. The Sλ in assay [4] (0.0006 x10^-3 mole/mole Ag) is recorded as 115; in assay [4] (0.0017 x10^-3 mole/mole Ag) it was 145; in assay [4] (0.0055 x10^-3 mole/mole Ag) it was 126.
In the case of `CC(C(=O)O)N(CCC(=O)Nc1cccc(-n2nnnc2S)c1)c1ccccc1` (stereo not drawn) [PMT-2], the Fog in assay [3] (0.0005 x10^-3 mole/mole Ag, dye II 0.86 x10^-3) is 0.13; in assay [3] (0.0016 x10^-3 mole/mole Ag, dye II 0.86 x10^-3), 0.23; in assay [3] (0.005 x10^-3 mole/mole Ag, dye II 0.86 x10^-3) it was 0.40; in assay [3] (0.005 x10^-3 mole/mole Ag, no dye), 0.06; in assay [3] (0.016 x10^-3 mole/mole Ag, no dye) it was 0.08. The S365 in assay [3] (0.0005 x10^-3 mole/mole Ag, dye II 0.86 x10^-3, dyed control 73) is 102; in assay [3] (0.0016 x10^-3 mole/mole Ag, dye II 0.86 x10^-3, dyed control 73), 118; in assay [3] (0.005 x10^-3 mole/mole Ag, dye II 0.86 x10^-3, dyed control 73) it was 118; in assay [3] (0.005 x10^-3 mole/mole Ag, no dye, control=100) it was 191; in assay [3] (0.016 x10^-3 mole/mole Ag, no dye, control=100), 186. In addition, in assay [3], the “effect on dye desensitization” value is reported as “effective in ameliorating dye desensitization”. Further, the Sλ in assay [4] (0.0005 x10^-3 mole/mole Ag) was found to be 123; in assay [4] (0.0016 x10^-3 mole/mole Ag), 145; in assay [4] (0.005 x10^-3 mole/mole Ag), 151.
